Structures can show the parent of a compound that is named as a salt.
melting point: 242 to 244 °C
Structure (SMILES): Cc1nc(N2CCC(CO)CC2)c2sc(C)c(-c3c(C)cc(Br)cc3C)c2n1 (as salt: HCl) [compound 1-004, {1-[7-(4-bromo-2,6-dimethyl-phenyl)-2,6-dimethyl-thieno[3,2-d]pyrimidin-4-yl]-piperidin-4-yl}-methanol hydrochloride]
